Source: US11266643B2, “Triaryl compounds for treatment of PD-L1 diseases” (CHEMOCENTRYX, INC., priority 2019, dated 2022)

molecular target: human PD-L1 (Homo sapiens (Human), UniProt Q9NZQ7); experiment: Enzyme-Linked Immunosorbent Assay (ELISA), PD-1/PD-L1 binding; settings: human PD-1/PD-L1 ELISA, plates coated with human PD-L1
Procedure: 96 Well plates were coated with […] of human PD-L1 (obtained from R&D) in PBS overnight at 4° C. The wells were then blocked with 2% BSA in PBS (W/V) with 0.05% TWEEN-20 for 1 hour at 37° C. The plates were washed 3 times with PBS/0.05% TWEEN-20 and the compounds were serial diluted (1:5) in dilution medium and added to the ELISA plates. Human PD-1 […] 0.31 μg/mL (ACRO Biosystems) were added and incubated for 1 hour at 37° C. then washed 3 times with PBS/0.05% TWEEN-20. A second block was performed with 2% BSA in PBS (W/V)/0.05% TWEEN-20 for 10 min at 37° C. and the plates were washed 3 times with PBS/0.05% TWEEN-20. Streptavidin-HRP was added for 1 hour at 37° C. then the plates were washed 3 times with PBS/0.05% TWEEN-20. TMB substrate was added and reacted for 20 min at 37° C. A stop solution (2 N aqueous H2SO4) was added. The absorbance was read at 450 nm using a micro-plate spectrophotometer.
Using the methods described in the Examples above, the compounds in Table 2 were prepared & tested for biological activity using the ELISA method described above.

Sequence of human PD-L1 (Q9NZQ7 19-239): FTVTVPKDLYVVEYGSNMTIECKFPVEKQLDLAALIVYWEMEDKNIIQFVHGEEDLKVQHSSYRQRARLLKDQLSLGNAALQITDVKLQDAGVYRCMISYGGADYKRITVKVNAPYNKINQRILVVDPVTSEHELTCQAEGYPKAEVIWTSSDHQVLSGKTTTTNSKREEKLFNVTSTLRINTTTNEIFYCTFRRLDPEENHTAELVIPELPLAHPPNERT

| SMILES | IC50 |
| --- | --- |
| COc1cc(-c2cccc(-c3cccc(NC(=O)c4cn(C)c(=O)n(C)c4=O)c3C)c2Cl)cc(F)c1CN[C@H]1CCOC[C@@H]1O (racemic) [Example 1.011] | < 10 nM |
| COc1cc(-c2cccc(-c3cccc(NC(=O)c4cn(C)c(=O)n(C)c4=O)c3C)c2C)cc(F)c1CN[C@H]1CCOC[C@@H]1O (racemic) [Example 1.013] | < 10 nM |
| COc1cc(-c2cccc(-c3cccc(NC(=O)c4cncn(C)c4=O)c3C)c2C)cc(F)c1CN[C@@H]1CC[C@H]1O (racemic) [Example 1.163] | < 10 nM |
| COc1cc(-c2cccc(-c3cccc(NC(=O)c4cn(C)c(=O)n(C)c4=O)c3C)c2C)cc(F)c1CN[C@H]1COCC[C@@H]1O [Example 1.001] | < 10 nM |
| COc1cc(-c2cccc(-c3cccc(NC(=O)c4cn(C)c(=O)n(C)c4=O)c3C)c2C)cc(F)c1CN[C@@H]1COCC[C@H]1O [Example 1.002] | < 10 nM |
| COc1cc(-c2cccc(-c3cccc(NC(=O)c4cn(C)c(=O)n(C)c4=O)c3C)c2F)cc(F)c1CN[C@@H]1CCC(=O)NC1 [Example 1.004] | < 10 nM |
| COc1cc(-c2cccc(-c3cccc(NC(=O)c4cn(C)c(=O)n(C)c4=O)c3C)c2F)cc(F)c1CN[C@H]1CCC(=O)NC1 [Example 1.005] | < 10 nM |
| COc1cc(-c2cccc(-c3cccc(NC(=O)c4cn(C)c(=O)n(C)c4=O)c3Cl)c2Cl)cc(F)c1CN[C@@H]1CCOC[C@H]1O [Example 1.006] | < 10 nM |
| COc1cc(-c2cccc(-c3cccc(NC(=O)c4cn(C)c(=O)n(C)c4=O)c3Cl)c2Cl)cc(F)c1CN[C@H]1CCC(=O)NC1 [Example 1.007] | < 10 nM |
| COc1cc(-c2cccc(-c3cccc(NC(=O)c4cn(C)c(=O)n(C)c4=O)c3Cl)c2Cl)cc(F)c1CN[C@H]1CCOC[C@H]1O [Example 1.008] | < 10 nM |
| COc1cc(-c2cccc(-c3cccc(NC(=O)c4cn(C)c(=O)n(C)c4=O)c3Cl)c2C)cc(F)c1CN[C@@H]1CCC(=O)NC1 [Example 1.009] | < 10 nM |
| COc1cc(-c2cccc(-c3cccc(NC(=O)c4cn(C)c(=O)n(C)c4=O)c3Cl)c2C)cc(F)c1CN[C@@H]1CCOC[C@@H]1O [Example 1.010] | < 10 nM |
| COc1cc(-c2cccc(-c3cccc(NC(=O)c4cn(C)c(=O)n(C)c4=O)c3C)c2C)cc(F)c1CN[C@@H]1CCOC[C@H]1O [Example 1.012] | < 10 nM |
| COc1cc(-c2cccc(-c3cccc(NC(=O)c4cn(C)c(=O)n(C)c4=O)c3C)c2F)cc(F)c1CN[C@@H]1CCOC[C@@H]1O [Example 1.016] | < 10 nM |
| COc1cc(-c2cccc(-c3cccc(NC(=O)c4cn(C)c(=O)n(C)c4=O)c3C)c2Cl)cc(F)c1CN[C@@H]1CCOC[C@@H]1O [Example 1.017] | < 10 nM |
| COc1cc(-c2cccc(-c3cccc(NC(=O)c4cn(C)c(=O)n(C)c4=O)c3C)c2Cl)cc(F)c1CN[C@H]1CCC(=O)NC1 [Example 1.018] | < 10 nM |
| COc1cc(-c2cccc(-c3cccc(Nc4nccc5nccnc45)c3Cl)c2C)cc(F)c1CNC[C@@H]1CCC(=O)N1 [Example 1.019] | < 10 nM |
| COc1cc(-c2cccc(-c3cccc(NC(=O)c4cn(C)c(=O)n(C)c4=O)c3C)c2F)cc(F)c1CN[C@@H]1CNC(=O)C1 [Example 1.020] | < 10 nM |
| COc1cc(-c2cccc(-c3cccc(NC(=O)c4cn(C)c(=O)n(C)c4=O)c3C)c2F)cc(F)c1CNC[C@@H]1CCC(=O)N1 [Example 1.021] | < 10 nM |
| COc1cc(-c2cccc(-c3cccc(Nc4nccc5nccnc45)c3Cl)c2C)cc(F)c1CNCC(C)(C)C(N)=O [Example 1.022] | 10 to 1000 nM |
| COc1cc(-c2cccc(-c3cccc(Nc4nccc5nccnc45)c3Cl)c2C)cc(F)c1CN[C@@H]1CNC(=O)C1 [Example 1.023] | 10 to 1000 nM |
| COc1cc(-c2cccc(-c3cccc(Nc4nccc5nccnc45)c3C)c2Cl)cc(F)c1CN[C@@H]1CNC(=O)C1 [Example 1.024] | < 10 nM |
| COc1cc(-c2cccc(-c3cccc(NC(=O)c4cn(C)c(=O)n(C)c4=O)c3Cl)c2C)cc(F)c1CN[C@H]1CCC(=O)NC1 [Example 1.026] | < 10 nM |
| COc1cc(-c2cccc(-c3cccc(Nc4nccc5nccnc45)c3C)c2Cl)cc(F)c1CNC[C@@H]1CCC(=O)N1 [Example 1.027] | < 10 nM |
| COc1cc(-c2cccc(-c3cccc(Nc4nccc5nccnc45)c3C)c2F)cc(F)c1CNC[C@@H]1CCC(=O)N1 [Example 1.028] | 10 to 1000 nM |
| COc1cc(-c2cccc(-c3cccc(Nc4nccc5nccnc45)c3C)c2F)cc(F)c1CNCC(C)(C)C(N)=O [Example 1.029] | 10 to 1000 nM |
| COc1cc(-c2cccc(-c3cccc(NC(=O)c4cn(C)c(=O)n(C)c4=O)c3Cl)c2C)cc(F)c1CNC[C@@H]1CCC(=O)N1 [Example 1.030] | < 10 nM |
| COc1cc(-c2cccc(-c3cccc(NC(=O)c4cn(C)c(=O)n(C)c4=O)c3Cl)c2Cl)cc(F)c1CNC[C@@H]1CCC(=O)N1 [Example 1.031] | < 10 nM |

| SMILES | IC50 |
| --- | --- |
| COc1cc(-c2cccc(-c3cccc(NC(=O)c4cn(C)c(=O)n(C)c4=O)c3Cl)c2C)cc(F)c1CNCC(C)(C)C(N)=O [Example 1.032] | < 10 nM |
| COc1cc(-c2cccc(-c3cccc(NC(=O)c4cn(C)c(=O)n(C)c4=O)c3C)c2F)cc(F)c1CNCC(C)(C)C(N)=O [Example 1.033] | < 10 nM |
| COc1cc(-c2cccc(-c3cccc(NC(=O)c4cn(C)c(=O)n(C)c4=O)c3C)c2Cl)cc(F)c1CNCC(C)(C)C(N)=O [Example 1.034] | < 10 nM |
| COc1cc(-c2cccc(-c3cccc(NC(=O)c4cn(C)c(=O)n(C)c4=O)c3C)c2Cl)cc(F)c1CN[C@@H]1CNC(=O)C1 [Example 1.035] | < 10 nM |
| COc1cc(-c2cccc(-c3cccc(NC(=O)c4cn(C)c(=O)n(C)c4=O)c3C)c2Cl)cc(F)c1CNC[C@@H]1CCC(=O)N1 [Example 1.036] | < 10 nM |
| COc1cc(-c2cccc(-c3cccc(NC(=O)c4cn(C)c(=O)n(C)c4=O)c3F)c2C)cc(F)c1CNC[C@@H]1CCC(=O)N1 [Example 1.037] | < 10 nM |
| COc1cc(-c2cccc(-c3cccc(NC(=O)c4cn(C)c(=O)n(C)c4=O)c3C)c2C)cc(F)c1CN[C@@H]1CCOC1 [Example 1.038] | < 10 nM |
| COc1cc(-c2cccc(-c3cccc(NC(=O)c4cn(C)c(=O)n(C)c4=O)c3C)c2C)cc(F)c1CN[C@H]1CCOC1 [Example 1.039] | < 10 nM |
| COc1cc(-c2cccc(-c3cccc(Nc4nccc5nccnc45)c3C)c2C)cc(F)c1CN[C@@H]1CCOC[C@@H]1O [Example 1.040] | < 10 nM |
| COc1cc(-c2cccc(-c3cccc(Nc4cncc5nccnc45)c3C)c2C)cc(F)c1CN[C@@H]1CCOC[C@@H]1O [Example 1.041] | < 10 nM |
| COc1cc(-c2cccc(-c3cccc(Nc4cncc5nccnc45)c3C)c2C)cc(F)c1CN[C@H]1CCC(=O)NC1 [Example 1.042] | < 10 nM |
| COc1cc(-c2cccc(-c3cccc(Nc4cncc5nccnc45)c3C)c2C)cc(F)c1CN[C@@H]1CNC(=O)C1 [Example 1.043] | < 10 nM |
| COc1cc(-c2cccc(-c3cccc(NC(=O)c4cn(C)c(=O)n(C)c4=O)c3F)c2C)cc(F)c1CN[C@@H]1CNC(=O)C1 [Example 1.044] | 10 to 1000 nM |
| COc1cc(-c2cccc(-c3cccc(NC(=O)c4nn(C)c(=O)n(C)c4=O)c3C)c2C)cc(F)c1CNC1CNC(=O)NC1=O (stereo not shown) [Example 1.045] | 10 to 1000 nM |
| COc1cc(-c2cccc(-c3cccc(NC(=O)c4cn(C)c(=O)n(C)c4=O)c3Cl)c2C)cc(F)c1CN[C@@H]1CNC(=O)C1 [Example 1.047] | < 10 nM |
| COc1cc(-c2cccc(-c3cccc(Nc4cncc5nccnc45)c3C)c2C)cc(F)c1CNC[C@@H]1CCC(=O)N1 [Example 1.048] | < 10 nM |
| COc1cc(-c2cccc(-c3cccc(NC(=O)c4c[nH]c(=O)n(C)c4=O)c3C)c2C)cc(F)c1CN[C@@H]1CCOC1 [Example 1.049] | < 10 nM |
| COc1cc(-c2cccc(-c3cccc(NC(=O)c4c[nH]c(=O)n(C)c4=O)c3C)c2C)cc(F)c1CN[C@H]1CCOC1 [Example 1.050] | < 10 nM |
| COc1cc(-c2cccc(-c3cccc(NC(=O)c4cncn(C)c4=O)c3C)c2C)cc(F)c1CNCC1CCNC(=O)C1 (stereo not shown) [Example 1.051] | < 10 nM |
| COc1cc(-c2cccc(-c3cccc(NC(=O)c4cn(C)c(=O)n(C)c4=O)c3C)c2C)cc(F)c1CNC1CCOCC1 [Example 1.052] | < 10 nM |
| COc1cc(-c2cccc(-c3cccc(NC(=O)c4c[nH]c(=O)n(C)c4=O)c3C)c2C)cc(F)c1CNC1CCOCC1 [Example 1.053] | < 10 nM |
| COc1cc(-c2cccc(-c3cccc(NC(=O)c4nn(C)c(=O)n(C)c4=O)c3C)c2C)cc(F)c1CNCc1c[nH]c(=O)[nH]c1=O [Example 1.054] | < 10 nM |
| COc1cc(-c2cccc(-c3cccc(NC(=O)c4nn(C)c(=O)n(C)c4=O)c3C)c2C)cc(F)c1CNC1CCNC(=O)C1 (stereo not shown) [Example 1.055] | < 10 nM |
| COc1cc(-c2cccc(-c3cccc(NC(=O)c4nn(C)c(=O)n(C)c4=O)c3C)c2C)cc(F)c1CNC[C@@H]1CCC(=O)N1C [Example 1.056] | < 10 nM |
| COc1cc(-c2cccc(-c3cccc(NC(=O)c4cn(C)c(=O)n(C)c4=O)c3C)c2C)cc(F)c1CN[C@@H]1COC[C@H]1O [Example 1.057] | < 10 nM |
| COc1cc(-c2cccc(-c3cccc(NC(=O)c4nn(C)c(=O)n(C)c4=O)c3C)c2C)cc(F)c1CN[C@@H]1CCC(=O)NC1=O [Example 1.058] | 10 to 1000 nM |
| COc1cc(-c2cccc(-c3cccc(NC(=O)c4nn(C)c(=O)n(C)c4=O)c3C)c2C)cc(F)c1CN[C@@H]1CCCNC1=O [Example 1.059] | 10 to 1000 nM |
